Patent US10633345B2, “Human plasma kallikrein inhibitors” (BioCryst Pharmaceuticals, Inc., priority 2014, dated 2020)

Assays:
human plasma kallikrein = human plasma kallikrein (Homo sapiens (Human), UniProt P03952); experiment: Plasma kallikrein activity assay (chromogenic substrate S2302); assay type: biochemical; conditions: 2 nM kallikrein, 80 μM S2302, 30° C., pH 7.8; Cheng-Prusoff; values given as bins
Procedure: Plasma Kallikrein Activity Assay.
The effect of compounds of the invention on human plasma kallikrein activity was determined using the chromogenic substrates (DiaPharma Group, Inc., West Chester, Ohio, USA). In these experiments, 2 nM kallikrein (Enzyme Research Laboratories, South Bend, Ind., USA) was incubated with 80 μM S2302 (H-D-Pro-Phe-Arg-p-nitroaniline) in the absence or presence of increasing concentrations of compounds of the invention in a final volume of 200 μL Tris-HCl buffer (200 mM NaCl; 2.5 mM CaCl2; 50 mM Tris-HCl, pH 7.8).
Data were analyzed using SigmaPlot software (Systat Software, Inc., San Jose, Calif., USA) (Four Parameter Logistic Curve).

[1] = system: patients with hereditary angioedema (HAE); conditions: cited from earlier work
[2] = system: mouse model of middle cerebral artery occlusion (MCAO); conditions: cited from earlier work

Chain of human plasma kallikrein (P03952 whole entry, looked up): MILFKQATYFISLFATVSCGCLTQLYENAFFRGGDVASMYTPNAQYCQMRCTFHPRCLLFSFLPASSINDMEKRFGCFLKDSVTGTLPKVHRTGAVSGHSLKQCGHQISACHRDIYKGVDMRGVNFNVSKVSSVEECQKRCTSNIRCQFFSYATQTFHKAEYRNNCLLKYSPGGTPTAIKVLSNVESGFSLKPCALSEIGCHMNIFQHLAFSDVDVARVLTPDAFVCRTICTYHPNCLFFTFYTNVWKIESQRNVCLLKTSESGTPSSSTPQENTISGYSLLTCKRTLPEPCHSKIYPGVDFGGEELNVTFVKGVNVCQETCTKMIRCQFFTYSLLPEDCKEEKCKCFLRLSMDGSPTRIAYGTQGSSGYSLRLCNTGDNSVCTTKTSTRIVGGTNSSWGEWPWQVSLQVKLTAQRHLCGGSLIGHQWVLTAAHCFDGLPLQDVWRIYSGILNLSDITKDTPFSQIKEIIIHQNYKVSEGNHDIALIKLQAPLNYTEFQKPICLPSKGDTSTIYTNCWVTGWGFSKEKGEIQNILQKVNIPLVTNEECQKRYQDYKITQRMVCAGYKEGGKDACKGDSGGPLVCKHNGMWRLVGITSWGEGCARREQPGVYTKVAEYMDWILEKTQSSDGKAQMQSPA
Chain of human plasma kallikrein (P03952 whole entry partner, looked up): as the sequence (P03952 whole entry, looked up) above

`N#Cc1cccc(C(N)(CCC2CC2)c2ccc(F)c(NC(=O)c3cc(C(F)(F)F)nn3-c3cccc(C(N)=O)c3)c2)c1` (single isomer, unassigned; (-)) [Compound 267c, (−)-N-(5-(1-amino-1-(3-cyanophenyl)-3-cyclopropylpropyl)-2-fluorophenyl)-1-(3-carbamoylphenyl)-3-(trifluoromethyl)-1H-pyrazole-5-carboxamide] showed a Ki (human plasma kallikrein) of over 100 nM.

For ecallantide [DX-88], the “edema in patients with hereditary angioedema (HAE)” value [1] is given as “alleviates edema”.

B1: C1-inhibitor: "a physiological inhibitor (C1-inhibitor)" (protein, UniProt P05155 23-500, looked up)
Plasma protease C1 inhibitor: NPNATSSSSQDPESLQDRGEGKVATTVISKMLFVEPILEVSSLPTTNSTTNSATKITANTTDEPTTQPTTEPTTQPTIQPTQPTTQLPTDSPTQPTTGSFCPGPVTLCSDLESHSTEAVLGDALVDFSLKLYHAFSAMKKVETNMAFSPFSIASLLTQVLLGAGENTKTNLESILSYPKDFTCVHQALKGFTTKGVTSVSQIFHSPDLAIRDTFVNASRTLYSSSPRVLSNNSDANLELINTWVAKNTNNKISRLLDSLPSDTRLVLLNAIYLSAKWKTTFDPKKTRMEPFHFKNSVIKVPMMNSKKYPVAHFIDQTLKAKVGQLQLSHNLSLVILVPQNLKHRLEDMEQALSPSVFKAIMEKLEMSKFQPTLLTLPRIKVTTSQDMLSIMEKLEFFDFSYDLNLCGLTEDPDLQVSAMQHQTVLELTETGVEAAAASAISVARTLLVFEVQQPFLFVLWDQQHKFPVFMGRVYDPRA
In the case of B1, the infarct size [2] is given as “reduced”.
